Data from patent US20230365514A1, “MACROCYCLIC COMPOUNDS” (NOVO NORDISK RESEARCH CENTRE OXFORD LIMITED, priority 2017, published 2023).
Values joined by “and” are separate entries in the source; they are usually repeats but may differ in a detail not shown here. Identical values can stand only once.

Experiments:
[1] = 1H NMR titration with D-glucose; type: binding; conditions: D2O; buffer differs by receptor (FIGS. 68-73, 77) (Table 6)
Method: ^1H-NMR titrations were performed on a Varian VNMR cryogenically cooled S600 spectrometer. Solutions of saccharides in D2O (99.9%), containing receptor at a known concentration to be used in the experiment, were prepared and allowed to equilibrate overnight before use if necessary. Aliquots were then added to an NMR tube containing a known concentration of receptor solution (typically 100 µM - 400 µM). The receptor concentration was therefore held constant while the carbohydrate concentration was increased. The sample tube was shaken after each addition and ^1H-NMR spectra were acquired at 298 K.
^1H-NMR titrations were performed on a Varian VNMR cryogenically cooled S600 spectrometer. Solutions of saccharides in D2O (99.9%), containing receptor at a known concentration to be used in the experiment, were prepared and allowed to equilibrate overnight before use if necessary. Aliquots were then added to an NMR tube containing a known concentration of receptor solution (typically 50 µM - 250 µM). The receptor concentration was therefore held constant while the carbohydrate concentration was increased. The sample tube was shaken after each addition, centrifuged and ^1H-NMR spectra were acquired at 298 K.
If the receptor bound saccharide slower than the NMR sample rate (“slow exchange”), the Ka was determined by analysing the NMR integral of a peak assigned to the Host-Guest complex. The variable X was defined as the integral of an isolated resonance of the complex (typically in the aromatic region) divided by the integral of all the related resonances (typically the whole aromatic region). As X is proportional to fraction of host in the bound state, the change in X could be plotted as a function of the guest concentration to give a curve which could be fitted to a 1:1 binding model to yield the association constant Ka. Mathematically, the fitting process is essentially identical to that employed for binding with fast exchange, except that the integral of a peak due to the complex replaces the chemical shift of a peak due to bound + unbound receptor. The calculation was performed using a non-linear least squares curve-fitting programme implemented within Excel. The programme yields binding constants Ka and limiting X (Xlim) as output. An estimated error for Ka was obtained from individual data points by assuming the determined Ka and Xlim.

[2] = ITC titration with D-glucose; type: binding; conditions: d-glucose in 10 mM phosphate buffer, 298 K (Table 6)
Method: ITC experiments were carried out at 298 K. Saccharide solutions were prepared in HPLC-grade water with 10 mM phosphate buffer solution (pH 7.4) and allowed to equilibrate overnight if necessary. The sample cell was charged with a known concentration of receptor solution in HPLC-grade water with 10 mM phosphate buffer solution at pH 7.4 (typically 50 µM - 200 µM). Then, aliquots (typically 1.0 µL) of carbohydrate solution were added and the evolution of heat was followed as a function of time. Heats of dilution were measured by injecting the same carbohydrate solution into HPLC-grade water with 10 mM phosphate buffer solution at pH 7.4, using identical conditions. For every addition, the heat of dilution was subtracted from the heat of binding using a MicroCal software programme implemented in ORIGIN 7.0. This gave an XY matrix of heat vs. total guest concentration. This matrix was then imported into a specially written Excel programme to fit the data to a 1:1 binding model to give a Ka. ΔG can be derived from Ka and thus ΔS can be derived from ΔH and ΔG using common thermodynamic equations. […] This method consistently produced more accurate fits than fitting the data to an S-curve, as in the MicroCal software (S-curves are typically not observed for binding constants below ~104 - 105 M^-1).

Row | Compound | Binding affinity for D-glucose (Ka), Determined by 1H-NMR [1] | Binding affinity for D-glucose (Ka), Determined by ITC [2]
1 | CCc1c2c(CC)c3c(CC)c1CNC(=O)Nc1cc(C(=O)[O-])c(C(=O)[O-])cc1NC(=O)NCc1c(CC)c(c(CC)c(c1CC)CNC(=O)Nc1cc(C(=O)[O-])c(C(=O)[O-])cc1NC(=O)NC3)CNC(=O)Nc1cc(C(=O)[O-])c(C(=O)[O-])cc1NC(=O)NC2.[Na+].[Na+].[Na+].[Na+].[Na+].[Na+] [Receptor 11, Hexa-carboxylate Hexa-urea Macrocycle] | ~ 2000 M^-1 | 
2 | CCc1c2c(CC)c3c(CC)c1CNC(=O)Nc1cc(C(=O)NC(CCC(=O)NC(CCC(=O)[O-])(CCC(=O)[O-])CCC(=O)[O-])(CCC(=O)NC(CCC(=O)[O-])(CCC(=O)[O-])CCC(=O)[O-])CCC(=O)NC(CCC(=O)[O-])(CCC(=O)[O-])CCC(=O)[O-])ccc1NC(=O)NCc1c(OC)c(c(OC)c(c1OC)CNC(=O)Nc1ccc(C(=O)NC(CCC(=O)NC(CCC(=O)[O-])(CCC(=O)[O-])CCC(=O)[O-])(CCC(=O)NC(CCC(=O)[O-])(CCC(=O)[O-])CCC(=O)[O-])CCC(=O)NC(CCC(=O)[O-])(CCC(=O)[O-])CCC(=O)[O-])cc1NC(=O)NC3)CNC(=O)Nc1ccc(C(=O)NC(CCC(=O)NC(CCC(=O)[O-])(CCC(=O)[O-])CCC(=O)[O-])(CCC(=O)NC(CCC(=O)[O-])(CCC(=O)[O-])CCC(=O)[O-])CCC(=O)NC(CCC(=O)[O-])(CCC(=O)[O-])CCC(=O)[O-])cc1NC(=O)NC2.[Na+].[Na+].[Na+].[Na+].[Na+].[Na+].[Na+].[Na+].[Na+].[Na+].[Na+].[Na+].[Na+].[Na+].[Na+].[Na+].[Na+].[Na+].[Na+].[Na+].[Na+].[Na+].[Na+].[Na+].[Na+].[Na+].[Na+] [Receptor 13] |  | 1310 M⁻¹ and 1310 ± 33 M⁻¹
3 | Cc1c2c(C)c3c(C)c1CNC(=O)Nc1ccc(C(=O)NC(CCC(=O)NC(CCC(=O)O)(CCC(=O)O)CCC(=O)O)(CCC(=O)NC(CCC(=O)O)(CCC(=O)O)CCC(=O)O)CCC(=O)NC(CCC(=O)O)(CCC(=O)O)CCC(=O)O)cc1NC(=O)NCc1c(C)c(c(C)c(c1C)CNC(=O)Nc1cc(C(=O)NC(CCC(=O)NC(CCC(=O)O)(CCC(=O)O)CCC(=O)O)(CCC(=O)NC(CCC(=O)O)(CCC(=O)O)CCC(=O)O)CCC(=O)NC(CCC(=O)O)(CCC(=O)O)CCC(=O)O)ccc1NC(=O)NC3)CNC(=O)Nc1cc(C(=O)NC(CCC(=O)NC(CCC(=O)O)(CCC(=O)O)CCC(=O)O)(CCC(=O)NC(CCC(=O)O)(CCC(=O)O)CCC(=O)O)CCC(=O)NC(CCC(=O)O)(CCC(=O)O)CCC(=O)O)ccc1NC(=O)NC2 [Receptor 8] |  | 4210 M⁻¹ and 4210 ± 73 M⁻¹
4 | CCc1c2c(CC)c3c(CC)c1CNC(=O)Nc1ccc(C(=O)NCCOCCOCCOCCN)cc1NC(=O)NCc1c(CC)c(c(CC)c(c1CC)CNC(=O)Nc1cc(C(=O)NCCOCCOCCOCCN)ccc1NC(=O)NC3)CNC(=O)Nc1cc(C(=O)NCCOCCOCCOCCN)ccc1NC(=O)NC2 [Receptor 10] | 481 ± 57 M⁻¹ | 
5 | CCc1c2c(CC)c3c(CC)c1CNC(=O)Nc1ccc(C(=O)NC(CCC(=O)NC(CCC(=O)[O-])(CCC(=O)[O-])CCC(=O)[O-])(CCC(=O)NC(CCC(=O)[O-])(CCC(=O)[O-])CCC(=O)[O-])CCC(=O)NC(CCC(=O)[O-])(CCC(=O)[O-])CCC(=O)[O-])cc1NC(=O)NCc1c(C)c(c(C)c(c1C)CNC(=O)Nc1cc(C(=O)NC(CCC(=O)NC(CCC(=O)[O-])(CCC(=O)[O-])CCC(=O)[O-])(CCC(=O)NC(CCC(=O)[O-])(CCC(=O)[O-])CCC(=O)[O-])CCC(=O)NC(CCC(=O)[O-])(CCC(=O)[O-])CCC(=O)[O-])ccc1NC(=O)NC3)CNC(=O)Nc1cc(C(=O)NC(CCC(=O)NC(CCC(=O)[O-])(CCC(=O)[O-])CCC(=O)[O-])(CCC(=O)NC(CCC(=O)[O-])(CCC(=O)[O-])CCC(=O)[O-])CCC(=O)NC(CCC(=O)[O-])(CCC(=O)[O-])CCC(=O)[O-])ccc1NC(=O)NC2.[Na+].[Na+].[Na+].[Na+].[Na+].[Na+].[Na+].[Na+].[Na+].[Na+].[Na+].[Na+].[Na+].[Na+].[Na+].[Na+].[Na+].[Na+].[Na+].[Na+].[Na+].[Na+].[Na+].[Na+].[Na+].[Na+].[Na+] [Receptor 14] | 14926 ± 1566 M⁻¹ | 
